This is an account of results in patent EP0415776A2, “Indolobenzoquinoline derivatives, their preparation and their use as anti-arrhythmic drugs” (Sankyo Company Limited, priority 1989, dated 1991).

The assay deals with arrhythmias caused by myocardial ischemia in dogs. The assay can be described thus: arrhythmias caused by myocardial ischemia in dogs (glass bead injected into left coronary artery). The class given is in vivo, Male Beagles. On the procedure:
Male Beagles weighing 8 - 12 kg were anesthetized with sodium pentobarbital (30 mg/kg i.v.). The animal was placed in a supine position, and the left carotid artery was isolated from the surrounding tissue. A metal cannula was then introduced from the left carotid artery and its tip was placed at the coronary orifice. A glass bead having a diameter of 1.7 mm was injected through the metal cannula into the left coronary artery. The glass bead injection produced a ST segment elevation, which was followed by ventricular arrhythmias due to myocardial infarction.
The dog was used in a conscious state for 24 hours after myocardial ischemia developed, when the arrythmic ratio exceeded 70%. The arrhythmic ratio was calculated by dividing the number of arrhythmias by the total heart beats in one minute.
Figures 1 and 2 of the accompanying drawings show the course of the arrhythmias with time following a single intravenous administration of the compound of Example 1 and its racemate, respectively.

Counter-ions that a name gives are not always drawn.

Consider `N[C@@H]1Cc2c3n(c4cccc(O)c24)C(=O)C[C@H]2CCC[C@@H]1[C@@H]32` [Example 1, (3aR,4R,12aR,12bS) 4-Amino-2,3,3a,4,5,12,12a,12b-octahydro-6-hydroxyindolo[3,2,1,-ij]benz[de]quinolin-11-(1 H)-one hydrochloride sesquihydrate], for which, for the setting “Example 1 at 2.5 mg/kg i.v. versus racemate at 5.0 mg/kg i.v.”, the “suppressing arrhythmias, compared with racemate” value was “almost comparable with its racemate at 5.0 mg/kg i.v”. Where the note is “single i.v. administration, dogs, inferred from 2.5 mg/kg vs 5.0 mg/kg”, the “potency in anti-arrhythmic action relative to racemate” value is reported as “about twice”. Further, the “number of arrhythmias per minute” value (single intravenous administration, conscious dog 24 hours after myocardial ischemia developed, course with time, Figures 1 and 2) is on record as “decreased the number of arrhythmias per minute”.
